Reference: ChEMBL document CHEMBL1139057, “Rotenoids and flavonoids with anti-invasion of HT1080, anti-proliferation of U937, and differentiation-inducing activity in HL-60 from Erycibe expansa” (Bioorg Med Chem, 2007)
Calls of active or inactive are those of the source. The calls are words filed in the database; no cut-off is given here.

What was measured:
HL-60 [1] = assay: Induction of human HL60 cells differentiation assessed as number of cells at 0.02 uM after 72 hrs by NBT reduction test; format: functional
HL-60 [2] = assay: […] human HL60 cells assessed NBT positive cells at 0.01 uM after 72 hrs by NBT reduction test; format: functional
HL-60 [3] = assay: […] human HL60 cells assessed NBT positive cells at 0.02 uM after 72 hrs by NBT reduction test; format: functional
HL-60 [4] = assay: Induction of human HL60 cells differentiation assessed as number of cells at 0.01 uM after 72 hrs by NBT reduction test; format: functional
HT-1080 [5] = assay: Antiproliferative activity against human HT1080 cells at 3 uM after 24 hrs by MTT assay; format: functional; settings: HT-1080, 24 h
HT-1080 [6] = assay: Antiproliferative activity against human HT1080 cells at 1 uM after 72 hrs by MTT assay; format: functional; settings: HT-1080, 72 h
U-937 [7] = assay: Antiproliferative activity against human U937 cells after 72 hrs by WST-8 assay; format: functional, cell-based; settings: U-937, 72 h
HT-1080 [8] = assay: Inhibition of proMMP2 production in human HT1080 cells by gelatin zymography analysis; format: functional, cell-based
HT-1080 [9] = assay: Antiproliferative activity against human HT1080 cells at 3 uM after 72 hrs by calcein-AM assay; format: functional; settings: HT-1080, 72 h
HT-1080 [10] = assay: Antiproliferative activity against human HT1080 cells at 30 uM after 24 hrs by calcein-AM assay; format: functional; settings: HT-1080, 24 h
HT-1080 [11] = assay: Antiproliferative activity against human HT1080 cells at 10 uM after 24 hrs by calcein-AM assay; format: functional; settings: HT-1080, 24 h
HT-1080 [12] = assay: Antiproliferative activity against human HT1080 cells at 10 uM after 48 hrs by MTT assay; format: functional; settings: HT-1080, 48 h
HT-1080 [13] = assay: Antiproliferative activity against human HT1080 cells at 1 uM after 48 hrs by MTT assay; format: functional; settings: HT-1080, 48 h
HT-1080 [14] = assay: Antiproliferative activity against human HT1080 cells at 10 uM after 48 hrs by calcein-AM assay; format: functional; settings: HT-1080, 48 h
HL-60 [15] = assay: Induction of human HL60 cells differentiation assessed as number of cells at 20 uM after 72 hrs by NBT reduction test; format: functional
HT-1080 [16] = assay: Antiproliferative activity against human HT1080 cells at 30 uM after 72 hrs by calcein-AM assay; format: functional; settings: HT-1080, 72 h
HL-60 [17] = assay: Induction of human HL60 cells differentiation assessed as number of cells at 10 uM after 72 hrs by NBT reduction test; format: functional
HT-1080 [18] = assay: Antiproliferative activity against human HT1080 cells at 30 uM after 24 hrs by MTT assay; format: functional; settings: HT-1080, 24 h
HT-1080 [19] = assay: Antiproliferative activity against human HT1080 cells at 30 uM after 72 hrs by MTT assay; format: functional; settings: HT-1080, 72 h
HT-1080 [20] = assay: Antiproliferative activity against human HT1080 cells at 10 uM after 24 hrs by MTT assay; format: functional; settings: HT-1080, 24 h
HT-1080 [21] = assay: Antiproliferative activity against human HT1080 cells at 1 uM after 24 hrs by calcein-AM assay; format: functional; settings: HT-1080, 24 h
HT-1080 [22] = assay: Inhibition of invasion of human HT1080 cells at 3 uM after 24 hrs; format: functional; settings: HT-1080, 24 h
HT-1080 [23] = assay: Antiproliferative activity against human HT1080 cells at 30 uM after 48 hrs by calcein-AM assay; format: functional; settings: HT-1080, 48 h
HT-1080 [24] = assay: Antiproliferative activity against human HT1080 cells at 30 uM after 48 hrs by MTT assay; format: functional; settings: HT-1080, 48 h
HT-1080 [25] = assay: Antiproliferative activity against human HT1080 cells at 3 uM after 48 hrs by MTT assay; format: functional; settings: HT-1080, 48 h
HL-60 [26] = assay: […] human HL60 cells assessed NBT positive cells at 30 uM after 72 hrs by NBT reduction test; format: functional
HT-1080 [27] = assay: Antiproliferative activity against human HT1080 cells at 10 uM after 72 hrs by MTT assay; format: functional; settings: HT-1080, 72 h
HT-1080 [28] = assay: Antiproliferative activity against human HT1080 cells at 1 uM after 72 hrs by calcein-AM assay; format: functional; settings: HT-1080, 72 h
HT-1080 [29] = assay: Antiproliferative activity against human HT1080 cells at 3 uM after 48 hrs by calcein-AM assay; format: functional; settings: HT-1080, 48 h
HT-1080 [30] = assay: Inhibition of invasion of human HT1080 cells at 10 uM after 24 hrs; format: functional; settings: HT-1080, 24 h
HT-1080 [31] = assay: Antiproliferative activity against human HT1080 cells at 1 uM after 48 hrs by calcein-AM assay; format: functional; settings: HT-1080, 48 h
HL-60 [32] = assay: […] human HL60 cells assessed NBT positive cells at 10 uM after 72 hrs by NBT reduction test; format: functional
U-937 [33] = assay: Antiproliferative activity against human U937 cells after 24 hrs by WST-8 assay; format: functional, cell-based; settings: U-937, 24 h
HT-1080 [34] = assay: Antiproliferative activity against human HT1080 cells at 3 uM after 24 hrs by calcein-AM assay; format: functional; settings: HT-1080, 24 h
HT-1080 [35] = assay: Inhibition of proMMP9 production in human HT1080 cells by gelatin zymography analysis; format: functional, cell-based
HT-1080 [36] = assay: Inhibition of invasion of human HT1080 cells at 30 uM after 24 hrs; format: functional; settings: HT-1080, 24 h
HT-1080 [37] = assay: Antiproliferative activity against human HT1080 cells at 10 uM after 72 hrs by calcein-AM assay; format: functional; settings: HT-1080, 72 h
HT-1080 [38] = assay: Antiproliferative activity against human HT1080 cells at 3 uM after 72 hrs by MTT assay; format: functional; settings: HT-1080, 72 h
U-937 [39] = assay: Antiproliferative activity against human U937 cells after 48 hrs by WST-8 assay; format: functional, cell-based; settings: U-937, 48 h
HT-1080 [40] = assay: Inhibition of invasion of human HT1080 cells at 1 uM after 24 hrs; format: functional; settings: HT-1080, 24 h
HT-1080 [41] = assay: Antiproliferative activity against human HT1080 cells at 1 uM after 24 hrs by MTT assay; format: functional; settings: HT-1080, 24 h

C=C1/C(=C\C=C2/CCC[C@]3(C)[C@@H]([C@H](C)CCCC(C)(C)O)CC[C@@H]23)C[C@@H](O)C[C@@H]1O [CALCITRIOL]
Activity (HL-60 [1]): 6.8 10^5/ml
Activity (HL-60 [2]): 15.6%
Activity (HL-60 [3]): 27.9%
Activity (HL-60 [4]): 8 10^5/ml

COc1cc2c(cc1OC)[C@]1(O)C(=O)c3ccc4c(c3O[C@@H]1CO2)C=CC(C)(C)O4 [TEPHROSIN]
inhibition at 3 µM (HT-1080 [5]): 0.8%
inhibition at 1 µM (HT-1080 [6]): 98.7%
IC50 (U-937 [7]): 7.3 µM
Activity (HT-1080 [8]): Active
inhibition at 3 µM (HT-1080 [9]): 97.9%
inhibition at 30 µM (HT-1080 [10]): 13.7%
inhibition at 10 µM (HT-1080 [11]): 5.9%
inhibition at 10 µM (HT-1080 [12]): 98.1%
inhibition at 1 µM (HT-1080 [13]): 96.4%
inhibition at 10 µM (HT-1080 [14]): 67.7%
Activity (HL-60 [15]): 1 10^5/ml
inhibition at 30 µM (HT-1080 [16]): 98.3%
Activity (HL-60 [17]): 4.5 10^5/ml
inhibition at 30 µM (HT-1080 [18]): 3.8%
inhibition at 30 µM (HT-1080 [19]): 98.6%
inhibition at 10 µM (HT-1080 [20]): 2%
inhibition at 1 µM (HT-1080 [21]): 5%
inhibition at 3 µM (HT-1080 [22]): 29.6%
inhibition at 30 µM (HT-1080 [23]): 83.2%
inhibition at 30 µM (HT-1080 [24]): 98%
inhibition at 3 µM (HT-1080 [25]): 97.9%
Activity (HL-60 [26]): 8.4%
inhibition at 10 µM (HT-1080 [27]): 98.9%
inhibition at 1 µM (HT-1080 [28]): 97.8%
inhibition at 3 µM (HT-1080 [29]): 63%
inhibition at 10 µM (HT-1080 [30]): 49.2%
inhibition at 1 µM (HT-1080 [31]): 54%
Activity (HL-60 [32]): 5.9%
IC50 (U-937 [33]): 30 µM
inhibition at 3 µM (HT-1080 [34]): 7%
Activity (HT-1080 [35]): Active
inhibition at 30 µM (HT-1080 [36]): 67.6%
inhibition at 10 µM (HT-1080 [37]): 98.2%
inhibition at 3 µM (HT-1080 [38]): 98.7%
IC50 (U-937 [39]): 23 µM
inhibition at 1 µM (HT-1080 [40]): -9.3%
inhibition at 1 µM (HT-1080 [41]): -1.9%

COc1cc2c(cc1OC)[C@@H]1C(=O)c3ccc4c(c3O[C@@H]1CO2)C=CC(C)(C)O4 [DEGUELIN]
inhibition at 3 µM (HT-1080 [5]): 8.6%
inhibition at 1 µM (HT-1080 [6]): 98.2%
IC50 (U-937 [7]): 5.8 µM
Activity (HT-1080 [8]): Active
inhibition at 3 µM (HT-1080 [9]): 98.5%
inhibition at 30 µM (HT-1080 [10]): 17%
inhibition at 10 µM (HT-1080 [11]): -1.8%
inhibition at 10 µM (HT-1080 [12]): 97.7%
inhibition at 1 µM (HT-1080 [13]): 78.3%
inhibition at 10 µM (HT-1080 [14]): 51%
Activity (HL-60 [15]): 0.3 10^5/ml
inhibition at 30 µM (HT-1080 [16]): 98.5%
Activity (HL-60 [17]): 2.1 10^5/ml
inhibition at 30 µM (HT-1080 [18]): 10.9%
inhibition at 30 µM (HT-1080 [19]): 98.9%
inhibition at 10 µM (HT-1080 [20]): 10.7%
inhibition at 1 µM (HT-1080 [21]): 10.5%
inhibition at 3 µM (HT-1080 [22]): 50.2%
inhibition at 30 µM (HT-1080 [23]): 40.4%
inhibition at 30 µM (HT-1080 [24]): 97.3%
inhibition at 3 µM (HT-1080 [25]): 96.5%
Activity (HL-60 [26]): 22.2%
inhibition at 10 µM (HT-1080 [27]): 98.8%
inhibition at 1 µM (HT-1080 [28]): 95.3%
inhibition at 3 µM (HT-1080 [29]): 44.2%
inhibition at 10 µM (HT-1080 [30]): 58%
inhibition at 1 µM (HT-1080 [31]): 35.2%
Activity (HL-60 [32]): 12.5%
IC50 (U-937 [33]): 42 µM
inhibition at 3 µM (HT-1080 [34]): -0.9%
Activity (HT-1080 [35]): Active
inhibition at 30 µM (HT-1080 [36]): 57.9%
inhibition at 10 µM (HT-1080 [37]): 98.5%
inhibition at 3 µM (HT-1080 [38]): 98.7%
IC50 (U-937 [39]): 16 µM
inhibition at 1 µM (HT-1080 [40]): 38%
inhibition at 1 µM (HT-1080 [41]): 6.3%

O=c1c(-c2ccc(O)cc2)coc2cc(O)cc(O)c12 [GENISTEIN]
inhibition at 3 µM (HT-1080 [5]): -6.2%
IC50 (U-937 [7]): 48 µM
inhibition at 3 µM (HT-1080 [9]): 1.5%
inhibition at 30 µM (HT-1080 [10]): 17.3%
inhibition at 10 µM (HT-1080 [11]): 6.1%
inhibition at 10 µM (HT-1080 [12]): 9.3%
inhibition at 10 µM (HT-1080 [14]): 5.1%
Activity (HL-60 [15]): 5.3 10^5/ml
inhibition at 30 µM (HT-1080 [16]): 17.2%
Activity (HL-60 [17]): 8.3 10^5/ml
inhibition at 30 µM (HT-1080 [18]): 12.5%
inhibition at 30 µM (HT-1080 [19]): 22.5%
inhibition at 10 µM (HT-1080 [20]): -1.2%
inhibition at 3 µM (HT-1080 [22]): 5.5%
inhibition at 30 µM (HT-1080 [23]): 17.6%
inhibition at 30 µM (HT-1080 [24]): 25.3%
inhibition at 3 µM (HT-1080 [25]): 3.8%
Activity (HL-60 [26]): 11.2%
inhibition at 10 µM (HT-1080 [27]): 1.7%
inhibition at 3 µM (HT-1080 [29]): 2%
inhibition at 10 µM (HT-1080 [30]): 35.1%
Activity (HL-60 [32]): 4.1%
IC50 (U-937 [33]): > 100 µM
inhibition at 3 µM (HT-1080 [34]): 2.8%
inhibition at 30 µM (HT-1080 [36]): 43.2%
inhibition at 10 µM (HT-1080 [37]): 6%
inhibition at 3 µM (HT-1080 [38]): -0.9%
IC50 (U-937 [39]): 72 µM
